One data set relates to GAPDH locus. Nature of the data set: gRNA cutting efficiency by ICE analysis, GAPDH locus. Format: cell-based. The conditions noted are these: RNP with Cas9 nucleofected into human PSCs, gDNA at 72 hours. The method, then: (§1) CRISPR-Cas9 gene editing was performed to insert transgenes into the intended STEL sites in the following experiments. Three guide RNAs (gRNAs) were designed computationally to target the 3′ UTR of GAPDH proximal to the stop codon. Five gRNAs were designed computationally to target the 3′ UTR of RPL13A proximal to the stop codon. These gRNAs were designed to have a low number of off-target sites and have a high predicted activity against the target sequence.
(§2) To test gRNA cutting efficiency, gRNAs complexed with Cas9 nuclease were delivered as ribonucleoproteins (RNPs) separately into human PSCs via nucleofection. At 72 hours following nucleofection, gDNA was extracted from each pool of nucleofected cells. A region around the GAPDH or RPL13A locus intended cut site was PCR-amplified using the following primers: […]
(§3) Overall cutting efficiency of each gRNA was determined by Inference of CRISPR Edits (ICE) Analysis by comparing a Sanger sequencing chromatogram from unedited cells to the Sanger sequencing chromatogram from each gRNA condition.

The next data set deals with RPL13A locus. Nature of the data set: gRNA cutting efficiency by ICE analysis, RPL13A locus. Format: cell-based. The conditions noted are these: RNP with Cas9 nucleofected into human PSCs, gDNA at 72 hours. The method, then: as §1, §2, §3
Data set [1] has as its system GAPDH-targeted RapaCasp9 PSC line. Kind of data set: Flow cytometric analysis of cleaved Caspase 3 after rapamycin treatment. It is filed as cell-based, human. To be noted: 5nM or 10 nM rapamycin, 24 hours of treatment. The protocol: A GAPDH-targeted RapaCasp9 PSC line was treated with either 5nM or 10 nM of rapamycin for 1, 2, 4 or 24 hours, and cells were harvested for flow cytometric analysis after each timepoint (FIG. 17). The primary antibody used was an anti-human/mouse cleaved caspase-3 conjugated to an Alexa Fluor® 488 […]. The primary antibody detects human and mouse Caspase 3 cleaved at Asp175. Caspase 3 is an executioner caspase that functions downstream of the initiator caspase, Caspase 9, in the apoptotic cascade. […] Upon induction of apoptosis through either cell stress or activation, it undergoes proteolysis into cleaved Caspase 3 subunits. […] There was negligible detection of cleaved Caspase 3 for edited PSCs not treated with rapamycin.

A value given as a limit tells only on which side of the number the result lay.

Take “5′-CUUCCUCUUGUGCUCUUGCU-3′ (SEQ ID NO:7) (listed as RNA, chemistry not given here) [GAPDH gRNA, guide RNA targeting the 3′ UTR of GAPDH proximal to the stop codon]”: the relative cutting efficiency entry with GAPDH locus is given as “highest relative cutting efficiencies”.
Take “5′-GGAAGGGCAGGCAACGCAUG-3′ (SEQ ID NO:8) (listed as RNA, chemistry not given here) [RPL13A gRNA, guide RNA targeting the 3′ UTR of RPL13A proximal to the stop codon]”: the relative cutting efficiency result in the data set with RPL13A locus is on record as “highest relative cutting efficiencies”.
In the case of `CO[C@H]1C[C@@H]2CC[C@@H](C)[C@@](O)(O2)C(=O)C(=O)N2CCCC[C@H]2C(=O)O[C@H]([C@H](C)C[C@@H]2CC[C@@H](O)[C@H](OC)C2)CC(=O)[C@H](C)/C=C(\C)[C@@H](O)[C@@H](OC)C(=O)[C@H](C)C[C@H](C)/C=C/C=C/C=C/1C` [rapamycin], the “cells staining for cleaved Caspase 3” value in data set [1] is > 99%.
